Tests used:
Sprague Dawley (SD) rat [1] = assay: Counting number of intestinal stools remaining in the colon tract; assay type: in vivo; conditions: oral, 8th day
Excerpt: (§1) Laboratory […] under the following conditions were used. • Genealogy and Species: Sprague Dawley (SD) rat • Source: Samtaco Co., Ltd. • Number of purchased animals and gender: Male • Age (week) of purchased animals and weight range: 6 weeks, 190 to 220 • Number of animals (male) at the time of administration: 49 • Age (week) of animals and weight range at the time of administration: 7 weeks, 210 to 240 g.
(§2) After one week of acclimation, the test substance, that is, ioperamide as a conventional constipation inductive material, bisacodyl as a conventional constipation therapeutic agent, the enzyme-degraded products in Examples 1 and 2 (fermented for 24 hours) and the fermented products in Examples 3 and 4, respectively, were repeatedly administered in the stomach once a day for a total of 7 days by means of a syringe for oral administration (Sonde). Except for the control group (Con), all test groups were subjected to administration of loperamide (4 mg/kg) in order to induce constipation.
The number of intestinal stools was counted by scarifying a laboratory rat on the 8th day after administration of loperamide and observing the number of feces remaining in the colon tract.
On the last day of the experiment, all laboratory animals were sacrificed and the number of feces remaining in the rectal region was measured.

Sprague Dawley (SD) rat [2] = assay: Measurement of number of feces and feces weight change in loperamide-induced constipation; assay type: in vivo; conditions: oral
Excerpt: as §1, §2
The feces were sampled daily and the number and weight of the feces were measured. Further, the sampled feces were dried in a drier at 70° C. for 24 hours.

[3] = Measurement of body weight, dietary intake and amount of drinking water; assay type: in vivo, Sprague Dawley (SD) rat; conditions: Lop group: loperamide 4 mg/kg alone, oral
Excerpt: as §1
as §2, with “Except for the control group (Con), all test groups were subjected to administration of loperamide (4 mg/kg) in order to induce constipation.” left out
The body weight was measured twice a week on the day before the experiment when group separation was conducted, and twice a week on the day after administration, respectively. The experimental dietary intake was measured by feeding 100 g of test diet at a predetermined time and, after 24 hours, the remaining amount was measured to determine the dietary intake. The drinking water was fed by 250 ml at a predetermined time and the remaining water was measured on the next day to determine a total amount of the water intake. […]

Sprague Dawley (SD) rat [4] = assay: Digestive tract migration rate (activated charcoal); assay type: in vivo; conditions: oral, 7th day, 30 minutes after charcoal
Excerpt: as §1
as §2, with “Except for the control group (Con), all test groups were subjected to administration of loperamide (4 mg/kg) in order to induce constipation.” left out
After fasting a laboratory animal for 15 hours on the 7th day of constipation induction, a 0.5 ml suspension including 10% Arabic gum (Sigma, USA) and 5% activated charcoal (Sigma, USA) was orally administered to the animal. 30 minutes later, the animal was sacrificed, the gastrointestinal tract was removed, and a migration rate was calculated by dividing a length wherein green colored feces are excreted among the intestinal tract length between the duodenum and the rectum, with passage of time. […]

Sprague Dawley (SD) rat [5] = assay: Measurement of water content of feces; assay type: in vivo; conditions: Bis group: loperamide 4 mg/kg + bisacodyl 4 mg/kg, oral; comparison group 29.98±1.89%
Excerpt: as §1, §2
The feces were sampled daily and the number and weight of the feces were measured. Further, the sampled feces were dried in a drier at 70° C. for 24 hours. A percentage of water content was calculated by subtracting the weight after drying from the weight before drying to estimate the water content and converting the estimated value as the percentage to a total weight of the feces.

[6] = Bis group: loperamide 4 mg/kg + bisacodyl 4 mg/kg

SMILES | Number of feces remaining in the intestinal tract (Sprague Dawley (SD) rat [1]; Lop group: loperamide 4 mg/kg alone, Con group 1.86±0.55) | Number of feces (Sprague Dawley (SD) rat [2]; Lop group: loperamide 4 mg/kg alone, 7th day after induction of constipation, Con group 55.14±2.06) | Weight of feces (Sprague Dawley (SD) rat [2]; Lop group: loperamide 4 mg/kg alone, Con group 7.52±0.30 g) [g] | Body weight change (g) (B) − (A) ([3]; 7 days) | Body weight (g) After test (B) ([3]; once a day for 7 days) [g] | Digestive tract migration rate (Sprague Dawley (SD) rat [4]; Lop group: loperamide 4 mg/kg alone, Con group 68.63±2.72%) [%] | Number of feces remaining in the intestinal tract (Sprague Dawley (SD) rat [1]; [6]) | Weight of feces (Sprague Dawley (SD) rat [2]; [6]) [g] | Water content of the feces (Sprague Dawley (SD) rat [5]) [%] | Digestive tract migration rate (Sprague Dawley (SD) rat [4]; [6]) [%]
CN(C)C(=O)C(CCN1CCC(O)(c2ccc(Cl)cc2)CC1)(c1ccccc1)c1ccccc1 [Loperamide] | 5.66±0.63 | 44.40±2.54 | 5.02 ± 0.36 | 73.45 ± 5.48 | 278.58 ± 6.82 | 42.10±3.49 |  |  |  | 
CC(=O)Oc1ccc(C(c2ccc(OC(C)=O)cc2)c2ccccn2)cc1 [Bisacodyl] |  |  |  |  |  |  | 3.62±0.86 | 6.82 ± 0.35 | 44.02±1.34 | 65.02±2.86

Source: US11324794B2, “Composition for preventing, improving, or treating decrease in intestinal function, comprising bamboo shoot hydrolyzate or fermented bamboo shoot as active ingredient” (OZLDNF CO., LTD., priority 2017, dated 2022)
